Laboratory results: patent publication US6794148B2, “High speed, automated, continuous flow, multi-dimensional molecular selection and analysis” (PerSeptive Biosystems, Inc., priority 1995, dated 2004)

How the values were obtained:
mouse IgG (Fc fragment) = assay: Solution phase peptide screening (SEC - reversed phase) of protein A and G digests; format: binding; details: native and denatured recombinant protein A and G digests
Description: 5 mg each of either mouse IgG (whole) or the Fc fragment was incubated with 20 mg of natural library and protein A and G digests, respectively. The mixture was dissolved in 1 ml of a mixture of 25 mM sodium phosphate buffer and 0.15 M NaCl (pH 7) overnight at 4° C. After incubation, several chromatographic runs through the Superdex SEC and RP columns were conducted with 200 of the protein and peptide mixture injected through the Superdex column during each run. The flow rate for the Superdex column was 0.75 m/min with the 25 mM sodium phosphate buffer and 0.15 M NaCl (pH 7) mixture. The early eluting protein peak was collected directly onto the RP column. The remaining portion of the peak was washed off the SEC. The mouse IgG (whole) or Fc fragment and its associated peptides were then eluted from the RP column under the following conditions:
Fractions corresponding to bound peptide peaks were lyophilized and redissolved in 1001 of 0.1% TFA/DIW for mass spec analysis by MALDI-TOF.

[1] = tested on: monoclonal antibody (mouse IgG2a, clone 3E-7) raised against human β-endorphin; assay: Peptide binding to immobilized anti-β-endorphin mAb affinity column in tandem with C-18 column
Description: The purchased mAb (280 mg resuspended in 1 ml H2O) was passed over an XL cartridge (2.1×30 mm) consisting of protein-G coupled to POROS™ perfusion chromatographic media (PerSeptive Biosystems, Framingham, Mass.) by making […] injections on a BioCAD™ 20 Workstation (PerSeptive Biosystems, Framingham, Mass.). Protein-G binds to the Fc region of antibodies with high affinity. The mAb was subsequently cross-linked to the protein G using the standard methods and materials provided with the XL column. In brief, this consisted of passing 14 ml of cross-linking solution (100 mM triethanolamine, pH 8.5, 7.8 mg/ml dimethyl pimelimidate (DMP)) over the column at a flow rate of 0.5 ml/mm. The cross-linking reagent was quenched by subsequent injection of 2 ml of 100 mM monoethanolamine, pH 9.0. The sensor cartridge was washed with PBS, pH 7.4 at 0.5 ml/min for 2 min followed by a further injection of 2 ml of quench solution and washed as above. […] A second XL column (without antibody) was treated with cross-linking reagents and washed as for the affinity column for use as a “control column”.
The target immobilized affinity column prepared above was plumbed in tandem mode to a vydac reversed phase C-18 column on a BioCAD™ Workstation using the configuration shown in FIG. 5. This configuration allowed independent equilibration and washing of the affinity and vydac columns while allowing in line elution of material bound to the mAb-column directly onto the vydac column. The reverse phase vydac column could then be eluted independently of the affinity column.
This reversed phase column was then developed with a gradient of acetonitrile (4% ACN/12 mM HCl to 80% ACN/6 mM HCl over 18 min; flow rate 1 ml/min). Both columns were re-equilibrated in their respective starting buffers prior to the next injection.
The peptide solution (20 nmol) was injected onto the affinity column and then unbound peptide was removed by washing the column with PBS, pH, 7.4. Peptides affinity captured by the antibody was eluted from the “target column” directly onto the C-18 column for resolution.

LPS (serotype O55;B5) = assay: LPS binding, tandem weak anion exchange / reverse phase columns with varied wash volumes; details: for wash volumes of column 1 needed to reduce peak by 50%: 1 CV=1.66 ml, 50 mM Tris pH 6.7; for retention on weak anion exchange column 1: with/without preincubation with LPS
From the text: We used a tandem column method employing POROS™ columns on a BioCAD™ 20 Workstation. Column 1 was a weak anion exchange column (PI/M; 4.6×100 mm) while column 2 was a reverse phase column (R2/H; 4.6×100 mm). […] LPS, however, would be expected to interact with this column due to the presence of two charged phosphate groups at the lipid A region of the molecule. […] Material retained on column 1 was eluted directly onto column 2 where it was captured. Elution of column 2 allowed the resolution of peaks arising from column 1.
Screening the library for binding to LPS was performed as follows. The cationic fraction of the XXXFL library was incubated (30 min/RT) with 1-3 mg/ml of LPS (serotype O55;B5; Sigma Chemical Co., St. Louis, Mo.) in 50 mM Tris, pH 6.7. At this time the incubation mixture was injected and run over column 1 on the BioCAD™ Workstation (equilibrated in the same buffer). The column was run at 4 ml/min. After washing with the appropriate number of column volumes of equilibration buffer (1 CV=1.66 ml), the column was purged and eluted (using 8 mM HCl, 1M NaCl) directly onto column 2 by switching the latter column in line with column 1 during the elution process. Material captured on column 2 was eluted using a gradient from 12 mM HCl in water to 80% ACN, 6 mM HCl. Peaks were collected, further purified by rerunning on a vydac C-18 column (4.6×250 mm), and analyzed by Mass Spectrometry (on a Voyager™ MALDI-TOF instrument; PerSeptive Biosystems, Framingham, Mass.) and peptide sequencing (Hewlett Packard). Peptides identified were synthesized and binding of these molecules to the Lipid A region of the LPS was confirmed by measuring the ability of PmxB or Pentamidine to compete with the peptide for this site.
The number of wash volumes required to reduce the peak for these agents correlated with the reported affinities of these agents for LPS; PmxB (Kd […]) was reduced 50% after 42 CVs washing of column 1 while pentamidine (Kd 100 nM) required a higher number of washes for a similar reduction (46 CVs). Using this methodology we could rapidly examine which peaks from the library were capable of binding to LPS with the highest affinity since, upon exposure to higher numbers of wash volumes only the peptides with higher affinity for the target were retained. […] Three such peaks from the XXXFL library and 3 peaks from the CXXXC library were further purified and characterized by MS and peptide sequencing. […] The other peptides will be synthesized and studied in a similar manner although another approach being considered is that a sublibrary of the format ZZZFL (where Z represents either R or K) be screened to identify the member with the highest affinity. Candidates purified from the cyclic library are still awaiting sequencing.

IgG = IgG purification from human serum on POROS-immobilized peptide column; format: binding
Description: 1 g POROS™ AL (aldehyde) was suspended in 10 mM PBS (pH 7.5) containing 100 mg sodium cyanoborohydride (NaCNBH3). 5 to 20 mg of each of the peptides selected by various screening procedures was added to the resin and the mixture was shaken overnight at room temperature. 100 mg sodium borohydride (NaBH4) was then added and the mixture was shaken for another 2 hrs. The beads were then washed with PBS and packed into 4.6 mm D×100 mm L column using POROS™ Self Pack® device.
100 μl of 1:10 diluted serum was injected onto the peptide column which was equilibrated with 20 mM tris (pH 8.0) at 5 ml/min. The bound proteins were eluted with 0-1 M NaCl gradient in 15 CVs. Fractions were collected manually and concentrated by Speed Vac for subsequent analysis by SDS-polyacrylamide gel electrophoresis.
The […] (SEQ ID NO: 8) peptide with heme group was immobilized on POROS™AL® (aldehyde) via the N-terminal end. This POROS™-peptide conjugate was used to separate IgG from serum at pH 8 under a 0-1 M NaCl gradient. […] To determine the nature of interaction, the purification profile of IgG separated on the POROS™-peptide column was compared with the IgG purified on standard ion exchange columns such as POROS™-CM and POROS™ HQ. […] The effect of the varying loading densities of peptide (from 10 mg/g POROS™ to 100 mg/g POROS™) on specificity and capacity for IgG binding was also investigated. The specificity of the peptide for IgG binding was also investigated. […] At low loading density (10 mg/g POROS™) IgG bound primarily via ionic interaction requiring elution of bound IgG with salt gradient. At higher loading density ([…]) IgG bound strongly and eluted with acid buffer. The binding capacity varied from 1-2 mg/ml column volume at lower ligand density to 30 mg/ml column volume at higher ligand densities.
A simplified analog of the heme peptide ([…]) (SEQ ID NO: 9) was synthesized and immobilized on POROS™ AL via the N-terminal end. […] The bound IgG was eluted from the GAQGHTVBK (SEQ ID NO: 9)-POROS™ column with 100 mM NaCl. The IgG binding capacity was determined to be 5 mg/ml column volume. Loading densities from 20 mg/g to 40 mg peptide /g POROS™ were evaluated. At these ligand densities, the specificity of IgG binding was not affected, but the capacity was reduced.

LPS = details: read-out: Kd for LPS (reported affinity); cited from earlier work
[2] = target: Monoclonal antibody (mAb), mouse IgG2a, clone 3E-7, raised against human β-endorphin (mouse); assay: 20 nmol peptide injected on immobilized mAb column, acid eluted onto C-18 column; peak area
[3] = target: Monoclonal antibody (mAb), mouse IgG2a, clone 3E-7, raised against human β-endorphin (mouse); assay: increasing quantities of peptide injected on immobilized mAb column; peak height on C-18 column
Concanavalin A (Con A) [4] = target: Concanavalin A (Con A) (Canavalia ensiformis, UniProt P02866)
From the text: (§1) The lectin Concanavalin A (Con A) has been used. Ligands were screened for specific binding to the sugar site of Con A as an example of the bimolecular approach to screening a mixture of components for interaction with a target. Biotinylated succinyl Con A was immobilized onto a streptavidin POROS™ support (BA cartridge, 2.1×30 mm). […] After exposing the column to 10 CVs of CAB buffer (0.2 m/min.), the remaining peptides were acid eluted onto a RP column. These peptides were eluted from a RP HPLC column using an acetonitrile gradient and the fractions were collected, pooled and sequenced. Recovery of each amino acid was expressed as a percentage of the total amount of amino acids recovered at each cycle of sequencing (AA %). Amino acid enrichment was then expressed for each amino acid as follows: [formula]

Concanavalin A (Con A) [5] = tested on: Concanavalin A (Con A)
From the text: as §1

[6] = target: human IgG (whole), pure or from human serum (human); assay: peptide immobilized on POROS AL via the N-terminal end; IgG binding capacity of the column

GDAPTPEKEPEASI (OTHER INFORMATION: Description of Artificial Sequence: Protein fragment derived from the tryptic digest of protein A and G) [peptide from recombinant Protein G digest]
selected as binder in solution phase screening (mouse IgG (Fc fragment)): identified

YEYFL (OTHER INFORMATION: Description of Artificial Sequence: synthetic peptide)
retention by the mAb affinity column ([1]; parallel experiment): not retained

polymyxin B
wash volumes of column 1 needed to reduce peak by 50% (LPS (serotype O55;B5)): 42 CVs
retention on weak anion exchange column 1 (LPS (serotype O55;B5)): retained on column 1 under the conditions used only after preincubation in the presence of LPS

TVTEKPEV (immobilized on POROS; OTHER INFORMATION: Description of Artificial Sequence: Synthetic peptide corresponding to a part of the Fc binding domain of recombinant protein G)
specificity of IgG binding from human serum (IgG; pH 8, immobilized on POROS via N-terminal end): comparable specificity as the POROS™-Protein A conjugate

N=C(N)c1ccc(OCCCCCOc2ccc(C(=N)N)cc2)cc1 [pentamidine]
Kd (LPS): 100 nM
wash volumes of column 1 needed to reduce peak by 50% (LPS (serotype O55;B5)): 46 CVs
retention on weak anion exchange column 1 (LPS (serotype O55;B5)): retained on column 1 under the conditions used only after preincubation in the presence of LPS

EKEPEVID (OTHER INFORMATION: Description of Artificial Sequence: Protein fragment derived from the tryptic digest of protein A and G) [peptide from recombinant Protein G digest]
selected as binder in solution phase screening (mouse IgG (Fc fragment)): identified

TVTEK (OTHER INFORMATION: Description of Artificial Sequence: Protein fragment derived from the tryptic digest of protein A and G)
IgG binding affinity relative to proteins A & G (IgG; salt gradient suffices for elution): bind IgG, but with less affinity

TVTEKPE (OTHER INFORMATION: Description of Artificial Sequence:Protein fragment derived from the tryptic digest of protein A and G) [peptide from recombinant Protein G digest]
selected as binder in solution phase screening (mouse IgG (Fc fragment)): identified

synthetic peptide YGGFL (SEQ ID NO: 1)
amount of the peptide recovered [2]: 1.2 nmol
amount of the bound peptide at saturation [3]: 1.2 nmol

HHRSY
displacement by competing sugar ligand (Concanavalin A (Con A) [4]; high concentration of competing sugar ligand): displaced somewhat
binding to Con A immobilized on the column (Concanavalin A (Con A) [4]; synthesized peptide): capable of binding specifically to Con A
binding to control column (Concanavalin A (Con A) [5]): little binding to the control column

KKRFL (OTHER INFORMATION: Description of Artificial Sequence: synthetic peptide)
affinity for LPS relative to Pentamidine (LPS (serotype O55;B5)): much lower than the latter molecule
competition for LPS binding (LPS (serotype O55;B5); competition experiment with Pentamidine): displaced by Pentamidine
binding to LPS (LPS (serotype O55;B5); synthesized peptide, same paradigm): demonstrated to bind to LPS

YGGFL
amount of the peptide recovered from affinity column, calculated from peak area ([1]; 20 nmol injected, PBS pH 7.4 wash, eluted onto C-18): approximately 1.2 nmoles
effect of injection flow rate on amount of peptide bound/recovered ([1]; flow rate 0.2 ml/min to 5 ml/min): did not affect the recovery
amount of bound peptide at saturation, calculated from peak height ([1]; increasing quantities injected): about 1.2 nmoles

B1: … (SEQ ID NO: 9), simplified analog of the heme peptide (peptide)
peptide: GAQGHTVEK
IgG binding capacity (mg/ml column volume) [6]: 5
